Each molecule was assayed against T1, α-synuclein (Homo sapiens, UniProt P37840) (assay: Detection of the ability of compounds to inhibit α-synuclein self-aggregation by HPLC). Conditions: test compound 200 μg/mL, α-synuclein 250 μg/ml, 37° C., 9 days; HPLC peak area of α-synuclein multimers vs model group.
T1 construct: purchased Sino Biological
Format: biochemical
Procedure: The test compound (for poorly soluble compounds, dissolve with an appropriate amount of DMSO first) and fresh α-synuclein monomers (purchased from Sino Biological) were added to pure water to a final protein concentration of 250 μg/ml, and the concentration of the test compound was 200 μg/mL, followed by incubation at 37° C. for 9 days. The peak area of α-synuclein multimers after incubation was detected by HPLC and the inhibition rate was calculated. […] Inhibition rate=(peak area of model group−peak area of example group)/peak area of model group×100%.
With `CCCCC(Cc1c[nH]c2ccccc12)NC(=O)c1cc2ccc(N3CCN(C)CC3)cc2o1` (stereo not shown) [Example 27, N-(1-(1H-indole-3-yl)hexan-2-yl)-6-(4-methylpiperazine-1-yl) benzofuran-2-carboxamide] the “inhibition rate (%)” value was 87.6%.

Same assay, conditions: test compound 200 μg/mL, α-synuclein 250 μg/ml, 37° C., 9 days; HPLC peak area of α-synuclein multimers vs model group; read-out: inhibition rate (%)
Molecule `CCCCC(Cc1c[nH]c2ccccc12)NC(=O)c1cc2ccc(N3CCN(C)CC3)nc2s1` (stereo not shown) [Example 2, N-[1-(1H-indol-3-yl)hexyl-2-yl]-6-(4-methylpiperazin-1-yl) thiophene[2,3-b]pyridine-2-carboxamide] has an inhibition at 200 µg/mL of 86.8%.
`CCCCC(Cc1c[nH]c2ccccc12)NC(=O)c1nc2ccc(N3CCN(C)CC3)cc2s1` (stereo not shown) [Example 4, N-(1-(1H-indol-3-yl)hexane-2-yl)-6-(4-methylpiperazin-1-yl) benzo[d]thiazole-2-carboxamide] showed an inhibition at 200 µg/mL of 90.6%.
For `CCCCC(Cc1c[nH]c2ccccc12)NC(=O)c1cc2cc(F)c(N3CCN(C)CC3)cc2s1` (stereo not shown) [Example 5, N-(1-(1H-indol-3-yl)hexane-2-yl)-5-fluoro-6-(4-methylpiperazin-1-yl) benzo[b]thiophene-2-carboxamide], the inhibition at 200 µg/mL was 98.6%.
`CCCCC(Cc1c[nH]c2ccccc12)NC(=O)c1cc2c(F)cc(N3CCN(C)CC3)cc2s1` (stereo not shown) [Example 6, N-(1-(1H-indol-3-yl)hexane-2-yl)-4-fluoro-6-(4-methylpiperazin-1-yl) benzo[b]thiophene-2-carboxamide] gave an inhibition at 200 µg/mL of 97.8%.
With `CCCCC(Cc1c[nH]c2ccccc12)NC(=O)c1cc2cc(N3CCN(C)CC3)ccc2s1` (stereo not shown) [Example 7, N-(1-(1H-indol-3-yl)hexane-2-yl)-5-(4-methylpiperazine-1-yl) benzo[b]thiophene-2-carboxamide] the inhibition at 200 µg/mL was 71.5%.
`CCCCC(Cc1c[nH]c2ccccc12)NC(=O)c1cc2cnc(N3CCN(C)CC3)cc2s1` (stereo not shown) [Example 8, N-(1-(1H-indol-3-yl)hexane-2-yl)-6-(4-methylpiperazin-1-yl) thieno[3,2-c] pyridine-2-carboxamide] was tested, and the inhibition at 200 µg/mL was 73.7%.
`CCCCC(Cc1c[nH]c2ccccc12)NC(=O)c1cc2c(C)nc(N3CCN(C)CC3)cc2s1` (stereo not shown) [Example 9, N-(1-(1H-indol-3-yl)hexane-2-yl)-4-methyl-6-(4-methylpiperazin-1-yl) thieno[3,2-c]pyridine-2-carboxamide] gave an inhibition at 200 µg/mL of 78.1%.
For `CCCCC(Cc1c[nH]c2ccccc12)NC(=O)c1cc2cccc(N3CCN(C)CC3)c2s1` (stereo not shown) [Example 10, N-(1-(1H-indol-3-yl)hexane-2-yl)-7-(4-methylpiperazin-1-yl) benzo[b]thiophene-2-carboxamide], the inhibition at 200 µg/mL was 73.1%.
`CCCCC(Cc1c[nH]c2ccccc12)NC(=O)c1sc2cc(N3CCN(C)CC3)ccc2c1C` (stereo not shown) [Example 11, N-(1-(1H-indol-3-yl)hexane-2-yl)-3-methyl-6-(4-methylpiperazin-1-yl) benzo[b]thiophene-2-carboxamide] gave an inhibition at 200 µg/mL of 73.4%.
For `CCCCC(Cc1c[nH]c2ccccc12)NC(=O)c1cc2ccc(N3CCC(C)CC3)cc2s1` (stereo not shown) [Example 12, N-(1-(1H-indol-3-yl)hexane-2-yl)-6-(4-methylpiperidin-1-yl) benzo[b]thiophene-2-carboxamide], the inhibition at 200 µg/mL was 86.9%.
Work on `CCCCC(Cc1c[nH]c2ccccc12)NC(=O)c1cc2ccc(N3CCN(C(C)C)CC3)cc2s1` (stereo not shown) [Example 13, N-(1-(1H-indol-3-yl)hexane-2-yl)-6-(4-isopropylpiperazin-1-yl) benzo[b]thiophene-2-carboxamide] yielded an inhibition at 200 µg/mL of 94.4%.
With `CCCCC(Cc1c[nH]c2ccccc12)NC(=O)c1cc2ccc(N3CCN(c4ccccc4)CC3)cc2s1` (stereo not shown) [Example 14, N-(1-(1H-indol-3-yl)hexane-2-yl)-6-(4-phenylpiperazine-1-yl) benzo[b]thiobene-2-carboxamide] the inhibition at 200 µg/mL was 73.5%.
Molecule `CCCCC(Cc1c[nH]c2ccccc12)NC(=O)c1cc2ccc(N3CCC(F)(F)CC3)cc2s1` (stereo not shown) [Example 15, N-(1-(1H-indol-3-yl)hexane-2-yl)-6-(4,4-difluoropiperidin-1-yl) benzo[b]thiophene-2-carboxamide] has an inhibition at 200 µg/mL of 96.2%.
Work on `CCCCC(Cc1c[nH]c2ccccc12)NC(=O)c1cc2ccc(N3CCC(C)(C)CC3)cc2s1` (stereo not shown) [Example 16, N-(1-(1H-indol-3-yl)hexane-2-yl)-6-(4,4-dimethylpiperidin-1-yl) benzo[b]thiobene-2-carboxamide] yielded an inhibition at 200 µg/mL of 96.3%.
With `CCCCC(Cc1c[nH]c2ccccc12)NC(=O)c1cc2ccc(N3CCN(C)CC3)c(F)c2s1` (stereo not shown) [Example 17, 7-Fluoro-N-[1-(1H-indol-3-yl)hexyl-2-yl]-6-(4-methylpiperazin-1-yl)-1-benzothiophene-2-carboxamide] the inhibition at 200 µg/mL was 98.2%.
With `CCCCC(Cc1c[nH]c2ccccc12)NC(=O)c1cc2cnc(N3CCC(C)CC3)cc2s1` (stereo not shown) [Example 18, N-(1-(1H-indol-3-yl)hexane-2-yl)-6-(4-methylpiperidin-1-yl) thieno[3,2-c]pyridine-2-carboxamide] the inhibition at 200 µg/mL was 76.9%.
Work on `CCCCC(Cc1c[nH]c2ccccc12)NC(=O)c1cc2ccc(N3CCC(O)CC3)cc2s1` (stereo not shown) [Example 19, N-(1-(1H-indol-3-yl)hexane-2-yl)-6-(4-hydroxypiperidin-1-yl) benzo[b]thiophene-2-carboxamide] yielded an inhibition at 200 µg/mL of 93.5%.
Molecule `CCCCC(Cc1c[nH]c2ccccc12)NC(=O)c1cc2ccc(N3CCC4(CC3)COC4)cc2s1` (stereo not shown) [Example 20, N-[1-(1H-indol-3-yl)hexane-2-yl]-6-(2-oxa-7-azaspiro [3.5]nonan-7-yl)-1-benzothiophene-2-carboxamide] has an inhibition at 200 µg/mL of 95.6%.
For `CCCCC(Cc1c[nH]c2ccccc12)NC(=O)c1cc2ccc(N3CCC4(CC3)CN(C3CCN(C)CC3)C4)cc2s1` (stereo not shown) [Example 21], the inhibition at 200 µg/mL was 78.2%.
`CCCCC(Cc1c[nH]c2ccccc12)NC(=O)c1cc2ccc(N3CCC4(CC3)CN(C)C4)cc2s1` (stereo not shown) [Example 22] gave an inhibition at 200 µg/mL of 83.8%.
With `CCCCC(Cc1c[nH]c2ccccc12)NC(=O)c1cc2ccc(N3CCOCC3)cc2s1` (stereo not shown) [Example 23, N-(1-(1H-indol-3-yl)hexane-2-yl)-6-morpholinobenzo[b]thiophene-2-carboxamide] the inhibition at 200 µg/mL was 89.7%.
`CCCCC(Cc1c[nH]c2ccccc12)NC(=O)c1cc2ccc(N3CCC(N(C)C)CC3)cc2s1` (stereo not shown) [Example 24, N-(1-(1H-indol-3-yl)hexane-2-yl)-6-(4-(dimethylamino)piperidin-1-yl) benzo[b]thiophene-2-carboxamide] gave an inhibition at 200 µg/mL of 89.7%.
`CCCCC(Cc1c[nH]c2ccccc12)NC(=O)c1cc2ccc(N3CC4(CN(C)C4)C3)cc2s1` (stereo not shown) [Example 25, N-(1-(1H-indol-3-yl)hexane-2-yl)-6-(6-methyl-2,6-diazaspiro [3.3]heptane-2-yl) benzo[b]thiophene-2-carboxamide] gave an inhibition at 200 µg/mL of 90.8%.
`CCCCC(Cc1c[nH]c2ccc(F)cc12)NC(=O)c1cc2ccc(N3CCN(C)CC3)cc2s1` (stereo not shown) [Example 26, N-(1-(5-fluoro-1H-indole-3-yl)hexane-2-yl)-6-(4-methylpiperazine-1-yl) benzo [b] thiophene-2-carboxamide] gave an inhibition at 200 µg/mL of 93.3%.
`CCCCC(Cc1c[nH]c2ccccc12)NC(=O)c1cc2ccc(N3CCN(C)CC3)cc2[nH]1` (stereo not shown) [Example 28, N-(1-(1H-indole-3-yl)hexane-2-yl)-6-(4-methylpiperazine-1-yl)-1H-indole-2-carboxamide] was tested, and the inhibition at 200 µg/mL was 73%.
`CCCCC(Cc1c[nH]c2ccccc12)NC(=O)c1cc2cnc(N3CCN(C)CC3)nc2s1` (stereo not shown) [Example 29, N-(1-(1H-indole-3-yl)hexane-2-yl)-2-(4-methylpiperazine-1-yl) thieno [2,3-d]pyrimidine-6-carboxamide] gave an inhibition at 200 µg/mL of 96.7%.
In the case of `CCCCC(Cc1c[nH]c2ccc(C)cc12)NC(=O)c1cc2ccc(N3CCN(C)CC3)cc2s1` (stereo not shown) [Example 30, N-(1-(5-methyl-1H-indole-3-yl)hexane-2-yl)-6-(4-methylpiperazine-1-yl) benzo[b]thiophene-2-carboxamide], the inhibition at 200 µg/mL is reported as 71.4%.
`CCCCC(Cc1c[nH]c2ccncc12)NC(=O)c1cc2ccc(N3CCN(C)CC3)cc2s1` (stereo not shown) [Example 31, N-(1-(1H-pyrrole[3,2-c]pyridin-3-yl)hexane-2-yl)-6-(4-methylpiperazine-1-yl) benzo[b]thiophene-2-carboxamide] was tested, and the inhibition at 200 µg/mL was 95.3%.
In the case of `CC(C)=CCC(Cc1c[nH]c2ccccc12)NC(=O)c1cc2ccc(N3CCN(C)CC3)cc2s1` (stereo not shown) [Example 32, N-(1-(1H-indol-3-yl)-5-methyl-4-hexene-2-yl)-6-(4-methylpiperazin-1-yl) benzo[b]thiophene-2-carboxamide], the inhibition at 200 µg/mL is reported as 86.1%.
In the case of `CC(C)CCC(Cc1c[nH]c2ccccc12)NC(=O)c1cc2ccc(N3CCN(C)CC3)cc2s1` (stereo not shown) [Example 33, N-(1-(1H-indol-3-yl)-5-methylhexane-2-yl)-6-(4-methylpiperazin-1-yl) benzo[b]thiophene-2-carboxamide], the inhibition at 200 µg/mL is reported as 93.4%.
`COCCC(Cc1c[nH]c2ccccc12)NC(=O)c1cc2ccc(N3CCN(C)CC3)cc2s1` (stereo not shown) [Example 34, N-[1-(CH-indol-3-yl)-4-methoxybutyl-2-yl]-6-(4-methylpiperazin-1-yl)-1-benzothiophene-2-carboxamide] gave an inhibition at 200 µg/mL of 97.5%.
With `C/C=C\CC(Cc1c[nH]c2ccccc12)NC(=O)c1cc2ccc(N3CCN(C)CC3)cc2s1` (stereo not shown) [Example 35, (Z)—N-(1-(1H-indol-3-yl)-4-hexene-2-yl)-6-(4-methylpiperazin-1-yl) benzo[b]thiophene-2-carboxamide] the inhibition at 200 µg/mL was 85.4%.
In the case of `CCCCC(Cc1c[nH]c2ccccc12)NC(=O)c1cc2ccc(N3CCN(C)CC3)cc2n1C` (stereo not shown) [Example 36, N-[1-(1H-indol-3-yl)hexyl-2-yl]-1-methyl-6-(4-methylpiperazin-1-yl)-1H-indole-2-carboxamide], the inhibition at 200 µg/mL is reported as 85.3%.
